Patent US9180156B2, “Composition for controlling increase in blood glucose” (priority 2008, dated 2015)
pIC50: −log10 of the molar value.

Legend:
[1] = Intraperitoneal glucose tolerance test (IPGTT) in rats; assay type: in vivo, rat; conditions: catechin 10 mg/kg i.v. 30 min before glucose 2.0 g/kg i.p.; 12-h fasted rats (FIG. 2)
Method: Sprague-Dawley rats were provided by Hyochang Science Co. (Seoul, Korea). After a 12-h fast, rats were anesthetized using pentobarbital sodium (40 mg/kg, i.p.; Nembutal, 50 mg/ml, Hanlim Pharmaceutical Co., Seoul, Korea) and then injected with one of the epicatechins: EGCG, EGC, ECG, and EC (each 10 mg/kg in 300 μl PBS, i.v.). EC was dissolved in a minute amount of DMSO in advance before addition of PBS. In another experiment, rats were randomly divided into 3 groups: control, GTE and GTE-GC. The rats in the GTE group were injected with natural GTE (100 mg/kg in 300 μl PBS, i.v.; 10 mg/kg as EGCG) through the tail vein, while the control rats were injected with only 300 μl PBS and rats in the GTE-GC group were given an equal amount of GC-deficient GTE (100 mg/kg in 300 μl PBS, i.v.; 2.6 mg/kg as EGCG). Thirty minutes after the injection, glucose (2.0 g/kg in 600 μl distilled water, i.p.) was injected. For OGTT, the rats were ingested with 1-ml distilled water only (control), or 1-ml distilled water containing one of natural GTE (900 mg/kg), GC-deficient GTE (900 mg/kg), EGCG (90 mg/kg), natural GTE plus PEG (110 mg/100 mg EGCG) or PEG alone. Immediately after the ingestion, each rat was orally given 1-ml distilled water containing glucose (2 g/kg). For the assay of blood glucose levels, blood was drawn from the tail vein at the indicated times. All the experiments were approved by the Keimyung University institutional ethics committee, Daegu, Korea for supervising animal research.

[2] = target: T1, glucose transporter type 1 (Homo sapiens, UniProt P11166); conditions: red blood cells; read-out: concentration competing with glucose such that the reaction rate was half its maximal value; cited from earlier work
T1 construct: glucose transporter type 1 in red blood cells; host or cells: red blood cells (erythrocytes)
T1 sequence (P11166 1-492): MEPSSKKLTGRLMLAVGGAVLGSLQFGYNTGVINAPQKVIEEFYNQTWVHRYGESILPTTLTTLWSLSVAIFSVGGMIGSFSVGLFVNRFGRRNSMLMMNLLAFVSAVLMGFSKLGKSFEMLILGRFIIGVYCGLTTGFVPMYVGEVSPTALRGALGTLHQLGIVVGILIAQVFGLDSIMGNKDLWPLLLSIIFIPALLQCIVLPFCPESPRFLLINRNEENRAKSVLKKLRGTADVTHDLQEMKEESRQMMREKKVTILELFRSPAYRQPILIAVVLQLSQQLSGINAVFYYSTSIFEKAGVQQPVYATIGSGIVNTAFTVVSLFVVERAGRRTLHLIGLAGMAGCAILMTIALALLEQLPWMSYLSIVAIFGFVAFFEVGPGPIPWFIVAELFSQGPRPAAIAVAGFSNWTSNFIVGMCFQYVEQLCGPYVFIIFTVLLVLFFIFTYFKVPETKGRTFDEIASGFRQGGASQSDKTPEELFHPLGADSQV

U937 cells = conditions: cited from earlier work
protein kinase B (PKB) [3] = test: Western blot of PKB phosphorylation, INS-1; assay type: cell-based, rat; conditions: up to 10 μM EGCG; with or without 100 nM insulin (FIG. 4D)
[4] = relatively long-term intraperitoneal application; rats; cited from earlier work
protein kinase B (PKB) [5] = test: Western blot of PKB phosphorylation, 3T3-L1; assay type: cell-based, mouse; conditions: up to 10 μM EGCG; with or without 100 nM insulin (FIG. 4C)
Method: (§1) Rat L6 myoblasts were cultured in low-glucose DMEM with 10% (v/v) FBS until they reached 80% confluency. To induce differentiation, cells were further cultured in DMEM (24.9 mM glucose) containing 2% FBS for 7 days. Cell viability was assessed by the trypan blue viability test. Myogenic differentiation to myotube status was evaluated both morphologically and biochemically. Mouse 3T3-L1 preadipocytes were grown to confluence at 37° C. in 35-mm culture dishes in DMEM containing 10% FCS with no added biotin or pantothenate in incubators equilibrated with 5% CO2. At two days post-confluence (day 0), differentiation was induced with methylisobutylxanthine (0.5 mM), dexamethasone (0.5 μM) and insulin (5 μg/ml) in DMEM containing 10% FBS. On day 2, methylisobutylxanthine and dexamethasone were removed and insulin treatment was continued for 2 additional days. On day 4 and thereafter, DMEM (without insulin supplementation) plus 10% FBS was replaced every 2 days. Cells (2×10^6 cells/dish) were used for experiments on day 8. Cell differentiation was evaluated by the Oil red-0 staining. Human hepatocellular carcinoma HepG2 cell line was maintained in DMEM containing 10% FBS at 37° C. […]

[6] = Insulin tolerance test (ITT) in normal rats; assay type: in vivo, rat
Method: Kir6.2 knock-out (k/o) mice were kindly provided by Prof. Susumu Seino at Kobe University in Japan. Following a 4-h fast, Kir6.2 k/o mice or normal rats were intravenously injected with PBS (100 μl for mouse, 300 μl for rat) only, or PBS containing EGCG (10 mg/kg), natural GTE (100 mg/kg) or GC-deficient GTE (100 mg/kg). Thirty minutes after the injection, the mice and rats were injected intraperitoneally with normal saline (300 μl for mouse, 600 μl for rat) containing insulin (1 IU/kg; INSULIN […], Ind.). Blood samplings were done through the tail vein at the indicated times.

[7] = 10 mg/kg i.v.; rats; cited from earlier work
[8] = system: differentiated L6 myoblasts; test: Deoxyglucose uptake assay, L6; assay type: cell-based, rat; conditions: EGCG 0.1, 1.0, 10 μM; with or without 100 nM insulin (FIG. 3A)
Method: (§2) Rat L6 myoblasts were cultured in low-glucose DMEM with 10% (v/v) FBS until they reached 80% confluency. To induce differentiation, cells were further cultured in DMEM (24.9 mM glucose) containing 2% FBS for 7 days. Cell viability was assessed by the trypan blue viability test. Myogenic differentiation to myotube status was evaluated both morphologically and biochemically. Mouse 3T3-L1 preadipocytes were grown to confluence at 37° C. in 35-mm culture dishes in DMEM containing 10% FCS with no added biotin or pantothenate in incubators equilibrated with 5% CO2. […] Cell differentiation was evaluated by the Oil red-0 staining. […]
(§3) Briefly, after serum starvation for 30 min, the cells were washed with Krebs-Ringer phosphate-HEPES buffer [KRPH buffer: 10 mM phosphate buffer, pH 7.4; 1 mM MgSO4, 1 mM CaCl2, 136 mM NaCl, 4.7 mM KCl, and 10 mM HEPES, pH 7.6] and then incubated with or without 100 nM insulin for 20 min in KRPH buffer that contained EGCG (0, 0.1, 1.0 or 10 μM). Glucose transport was determined by the addition of 2-deoxy-[^3H] glucose (0.1 mM, 0.5 μCi/ml; PerkinElmer Life and Analytical Science, Waltham, Mass.). […] The cells were then lysed in PBS containing 0.2 M NaOH, and glucose uptake was assessed by scintillation counting.

protein kinase B (PKB) [9] = test: Western blot of PKB phosphorylation, HepG2; assay type: cell-based, human; conditions: up to 10 μM EGCG; with or without 100 nM insulin (FIG. 4B)
Method: as §1

OGTT in rats = assay type: in vivo, rat; conditions: GC-deficient GTE 900 mg/kg or EGCG 90 mg/kg oral immediately before oral glucose; rats (FIG. 6D)
HepG2 hepatocytes = test: Deoxyglucose uptake assay, HepG2; assay type: cell-based, human; conditions: EGCG 0.1, 1.0, 10 μM; with or without 100 nM insulin (FIG. 3B)
Method: as §2, §3

protein kinase B (PKB) [10] = test: Western blot of PKB phosphorylation, L6; assay type: cell-based, rat; conditions: up to 10 μM EGCG; with or without 100 nM insulin (FIG. 4A)
Method: as §1

[11] = system: differentiated 3T3-L1 adipocytes; test: Deoxyglucose uptake assay, 3T3-L1; assay type: cell-based, mouse; conditions: EGCG 0.1, 1.0, 10 μM; with or without 100 nM insulin (FIG. 3C)
Method: as §2, §3

[12] = Insulin tolerance test (ITT) in Kir6.2 k/o mice; assay type: in vivo, mouse
Method: Kir6.2 knock-out (k/o) mice were kindly provided by Prof. Susumu Seino at Kobe University in Japan. Following a 4-h fast, Kir6.2 k/o mice or normal rats were intravenously injected with PBS (100 μl for mouse, 300 μl for rat) only, or PBS containing EGCG (10 mg/kg), natural GTE (100 mg/kg) or GC-deficient GTE (100 mg/kg). Thirty minutes after the injection, the mice and rats were injected intraperitoneally with normal saline (300 μl for mouse, 600 μl for rat) containing insulin (1 IU/kg; INSULIN LISPRO, Eli Lilly, Ind.). Blood samplings were done through the tail vein at the indicated times.

INS-1 beta cells = test: Deoxyglucose uptake assay, INS-1; assay type: cell-based, rat; conditions: EGCG 0.1, 1.0, 10 μM; with or without 100 nM insulin (FIG. 3D)
Method: as §2, §3

In the case of `O=C(O[C@@H]1Cc2c(O)cc(O)cc2O[C@@H]1c1ccc(O)c(O)c1)c1cc(O)c(O)c(O)c1` [ECG, epicatechin-3-gallate], the “blood glucose levels 30 min after glucose loading vs control” value (“blood glucose levels 30 min … vs control” for short) [1] is given as “more elevated” and the pIC50 [2] is given as 7.00.

In the case of `Oc1cc(O)c2c(c1)O[C@H](c1cc(O)c(O)c(O)c1)[C@H](O)C2` [EGC, epigallocatechin], the “blood glucose levels 30 min … vs control” value [1] was “no effects”.

In the case of `O=c1c(O)c(-c2cc(O)c(O)c(O)c2)oc2cc(O)cc(O)c12` [myricetin], the “concentration that inhibits cellular glucose uptake” value (U937 cells) is listed as “around 10 μM”.

For `O=c1c(O)c(-c2ccc(O)c(O)c2)oc2cc(O)cc(O)c12` [quercetin], the “concentration that inhibits cellular glucose uptake” value (U937 cells) is given as “around 10 μM”.

For Epigallocatechin-3-gallate [EGCG], the “basal and insulin-regulated expression of phospho-PKB” value (protein kinase B (PKB) [3]) is given as “did not alter”, the “effect on body weight” value [4] is given as “weight loss” and the “effect on the sexual organs” value [4] is given as “significant deterioration in the sexual organs”. The “basal and insulin-regulated expression of phospho-PKB” value (protein kinase B (PKB) [5]) was “did not alter”, the “rate of blood glucose disappearance when treated with insulin” value ([6]; EGCG 10 mg/kg i.v. 30 min before insulin 1 IU/kg i.p., rats, P<0.01 (FIG. 5C)) was “delayed mildly but significantly” and the “blood glucose levels 30 min after injection” value ([6]; EGCG 10 mg/kg i.v., 4-h fasted normal rats, P<0.01 (FIG. 5A)) was “significant elevation”. For the same molecule, the “blood concentration at 30 min after injection” value [7] was “around 1 μM”, the “basal and insulin-stimulated 2-deoxy-[3H]-glucose uptake” value [8] was “decreased by EGCG dose-dependently” and the “basal and insulin-regulated expression of phospho-PKB” value (protein kinase B (PKB) [9]) was “did not alter”. The “inhibition of glucose absorption compared with the GTE-treated group” value (OGTT in rats) was “less efficiently”, the “basal and insulin-stimulated 2-deoxy-[3H]-glucose uptake” value (HepG2 hepatocytes) was “decreased by EGCG dose-dependently” and the “blood glucose levels 30 min … vs control” value [1] was “more elevated”. For the same molecule, the “basal and insulin-regulated expression of phospho-PKB” value (protein kinase B (PKB) [10]) was “did not alter”, the “basal and insulin-stimulated 2-deoxy-[3H]-glucose uptake” value [11] was “decreased by EGCG dose-dependently” and the “rate of blood glucose disappearance when treated with insulin” value ([12]; EGCG 10 mg/kg i.v. 30 min before insulin 1 IU/kg i.p., Kir6.2 k/o mice, P<0.01 (FIG. 5D)) was “delayed mildly but significantly”. For the same molecule, the “blood glucose levels 30 min after injection” value ([12]; EGCG 10 mg/kg i.v., 4-h fasted Kir6.2 k/o mice, P<0.01 (FIG. 5B)) was “significant elevation”, the “basal and insulin-stimulated 2-deoxy-[3H]-glucose uptake” value (INS-1 beta cells) was “decreased by EGCG dose-dependently” and the pIC50 [2] was 6.00.
